Assay results reported in US9611249B2, “1H-indazole-3-carboxamide compounds as glycogen synthase kinase 3 beta inhibitors” (AZIENDE CHIMICHE RIUNITE ANGELINI FRANCESCO A.C.R.A.F. …, priority 2012, dated 2017).

What was measured:
[1] = biological target: PCTAIRE1 kinase (h) (Homo sapiens (Human), UniProt Q00536); test: Kinase selectivity panel: PCTAIRE1 kinase (h); format: biochemical; conditions: 10 μM in duplicate, read-out: % inhibition of control values
Description: (§1) (a) Compounds 1 and 2 were tested against a panel of 60 kinases in order to assess their selectivity. The assays were chosen taking into consideration the diversity of assay families.
(§2) Tested kinases were representative of following kinase sub-families: • protein-serine/threonine kinases; • protein-tyrosine kinases; • other kinases; and • atypical kinases.
(§3) Human recombinant kinases were incubated in the presence of specific peptide substrates plus ATP for different times (10, 15, 30, 60 or 90 minutes) at 22° C. Phosphorylated substrate was detected by LANCE or HTRF technology (CISBIO, MA, USA). The compounds were tested at 10 μM in duplicate.
(§4) The results are expressed as a percentage of inhibition of control specific activity obtained in the presence of the test compounds and are reported in the following Table 5.
(§5) (b) Compounds 3, 8, 29 and 31 were tested against the same panel of 60 kinases under the same conditions described above for compounds 1 and 2.
(§6) The results are expressed as a percent of inhibition of control specific activity obtained in the presence of the test compounds and are reported in the following Table 6.

[2] = biological target: CDC2/CDK1 (h) (cycB) (Homo sapiens (Human), UniProt P06493); test: Kinase selectivity panel: CDC2/CDK1 (h) (cycB); format: biochemical; conditions: 10 μM in duplicate, read-out: % inhibition of control values
Description: as §1, §2, §3, §4, §5, §6

[3] = biological target: TAOK2 (TAO1) (h) (Homo sapiens (Human), UniProt Q9UL54); test: Kinase selectivity panel: TAOK2 (TAO1) (h); format: biochemical; conditions: 10 μM in duplicate, read-out: % inhibition of control values
Description: as §1, §2, §3, §4, §5, §6

[4] = biological target: CDK5/p35 (h) (Homo sapiens (Human), UniProt Q00535); test: Kinase selectivity panel: CDK5/p35 (h); format: biochemical; conditions: 10 μM in duplicate, read-out: % inhibition of control values
Description: as §1, §2, §3, §4, §5, §6

[5] = biological target: GSK3beta (h) (Homo sapiens (Human), UniProt P49841); test: Kinase selectivity panel: GSK3beta (h); format: biochemical; conditions: for inhibition at 10 µM: GSK3beta (h), 10 μM in duplicate, read-out: % inhibition of control values; for selectivity for GSK-3β compared to the other kinases of the panel: panel of 60 kinases, 10 μM, conclusion in words
Description: as §1, §2, §3, §4, §6

[6] = biological target: DYRK1a (h) (Homo sapiens (Human), UniProt Q13627); test: Kinase selectivity panel: DYRK1a (h); format: biochemical; conditions: 10 μM in duplicate, read-out: % inhibition of control values
Description: as §1, §2, §3, §4, §5, §6

[7] = biological target: ERK2 (h) (P42mapk) (Homo sapiens (Human), UniProt P28482); test: Kinase selectivity panel: ERK2 (h) (P42mapk); format: biochemical; conditions: 10 μM in duplicate, read-out: % inhibition of control values
Description: as §1, §2, §3, §4, §5, §6

[8] = biological target: IRK (h) (InsR) (Homo sapiens (Human), UniProt P06213); test: Kinase selectivity panel: IRK (h) (InsR); format: biochemical; conditions: 10 μM in duplicate, read-out: % inhibition of control values
Description: as §1, §2, §3, §4, §5, §6

[9] = biological target: Src kinase (h) (Homo sapiens (Human), UniProt P12931); test: Kinase selectivity panel: Src kinase (h); format: biochemical; conditions: 10 μM in duplicate, read-out: % inhibition of control values
Description: as §1, §2, §3, §4, §5, §6

[10] = biological target: CDK2 (h) (cycA) (Homo sapiens (Human), UniProt P24941); test: Kinase selectivity panel: CDK2 (h) (cycA); format: biochemical; conditions: 10 μM in duplicate, read-out: % inhibition of control values
Description: as §1, §2, §3, §4, §5, §6

[11] = biological target: HGK (h) (MAP4K4) (Homo sapiens (Human), UniProt O95819); test: Kinase selectivity panel: HGK (h) (MAP4K4); format: biochemical; conditions: 10 μM in duplicate, read-out: % inhibition of control values
Description: as §1, §2, §3, §4, §5, §6

[12] = biological target: NEK1 (h) (Homo sapiens (Human), UniProt Q96PY6); test: Kinase selectivity panel: NEK1 (h); format: biochemical; conditions: 10 μM in duplicate, read-out: % inhibition of control values
Description: as §1, §2, §3, §4, §5, §6

[13] = biological target: MEK1/MAP2K1 (h) (Homo sapiens (Human), UniProt Q02750); test: Kinase selectivity panel: MEK1/MAP2K1 (h); format: biochemical; conditions: 10 μM in duplicate, read-out: % inhibition of control values
Description: as §1, §2, §3, §4, §5, §6

[14] = biological target: human GSK-3β (Homo sapiens (Human), UniProt P49841); test: GSK-3β LanthaScreen TR-FRET Eu Kinase binding and displacement assay; conditions: compounds 16 to 41, LanthaScreen TR-FRET binding and displacement assay, five concentrations 100 μM to 10 nM
Description: In a second assay, the same compounds were assayed at five concentrations ranging from 100 μM to 10 nM with ten-fold dilutions in duplicate. Compounds 1 to 15 were tested using the same first assay, compounds 16 to 41 were tested in another assay based on the binding and displacement of AlexaFluor® 647 labeled, ATP-competitive Kinase inhibitor scaffold using LanthaScreen™ TR-FRET technology Eu Kinase assay packet according to manufacturer's instruction (Life Technologies, Italy).
The IC50 values (concentration causing a half maximal inhibition of control specific activity), reported in table 4, were determined by non-linear regression analysis of the inhibition curves generated with mean replicate values using Hill equation curve fitting.

[15] = biological target: smMLCK (h) (MYLK) (Homo sapiens (Human), UniProt Q15746); test: Kinase selectivity panel: smMLCK (h) (MYLK); format: biochemical; conditions: 10 μM in duplicate, read-out: % inhibition of control values
Description: as §1, §2, §3, §4, §5, §6

[16] = biological target: ERK1 (h) (Homo sapiens (Human), UniProt P27361); test: Kinase selectivity panel: ERK1 (h); format: biochemical; conditions: 10 μM in duplicate, read-out: % inhibition of control values
Description: as §1, §2, §3, §4, §5, §6

[17] = biological target: TRKA (h) (Homo sapiens (Human), UniProt P04629); test: Kinase selectivity panel: TRKA (h); format: biochemical; conditions: 10 μM in duplicate, read-out: % inhibition of control values
Description: as §1, §2, §3, §4, §5, §6

Sequence of GSK3beta (h) (P49841 whole entry): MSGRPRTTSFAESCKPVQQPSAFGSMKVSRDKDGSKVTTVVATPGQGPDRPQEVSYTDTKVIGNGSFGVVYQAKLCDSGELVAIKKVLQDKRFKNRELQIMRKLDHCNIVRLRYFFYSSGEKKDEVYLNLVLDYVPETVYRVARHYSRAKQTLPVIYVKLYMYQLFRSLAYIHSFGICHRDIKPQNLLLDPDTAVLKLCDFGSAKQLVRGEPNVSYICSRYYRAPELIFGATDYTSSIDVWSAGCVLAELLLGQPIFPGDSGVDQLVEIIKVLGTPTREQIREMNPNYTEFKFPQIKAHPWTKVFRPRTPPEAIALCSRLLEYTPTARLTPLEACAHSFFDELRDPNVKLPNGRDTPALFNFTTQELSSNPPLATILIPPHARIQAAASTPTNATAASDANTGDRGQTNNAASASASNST
Sequence of TAOK2 (TAO1) (h) (Q9UL54 whole entry): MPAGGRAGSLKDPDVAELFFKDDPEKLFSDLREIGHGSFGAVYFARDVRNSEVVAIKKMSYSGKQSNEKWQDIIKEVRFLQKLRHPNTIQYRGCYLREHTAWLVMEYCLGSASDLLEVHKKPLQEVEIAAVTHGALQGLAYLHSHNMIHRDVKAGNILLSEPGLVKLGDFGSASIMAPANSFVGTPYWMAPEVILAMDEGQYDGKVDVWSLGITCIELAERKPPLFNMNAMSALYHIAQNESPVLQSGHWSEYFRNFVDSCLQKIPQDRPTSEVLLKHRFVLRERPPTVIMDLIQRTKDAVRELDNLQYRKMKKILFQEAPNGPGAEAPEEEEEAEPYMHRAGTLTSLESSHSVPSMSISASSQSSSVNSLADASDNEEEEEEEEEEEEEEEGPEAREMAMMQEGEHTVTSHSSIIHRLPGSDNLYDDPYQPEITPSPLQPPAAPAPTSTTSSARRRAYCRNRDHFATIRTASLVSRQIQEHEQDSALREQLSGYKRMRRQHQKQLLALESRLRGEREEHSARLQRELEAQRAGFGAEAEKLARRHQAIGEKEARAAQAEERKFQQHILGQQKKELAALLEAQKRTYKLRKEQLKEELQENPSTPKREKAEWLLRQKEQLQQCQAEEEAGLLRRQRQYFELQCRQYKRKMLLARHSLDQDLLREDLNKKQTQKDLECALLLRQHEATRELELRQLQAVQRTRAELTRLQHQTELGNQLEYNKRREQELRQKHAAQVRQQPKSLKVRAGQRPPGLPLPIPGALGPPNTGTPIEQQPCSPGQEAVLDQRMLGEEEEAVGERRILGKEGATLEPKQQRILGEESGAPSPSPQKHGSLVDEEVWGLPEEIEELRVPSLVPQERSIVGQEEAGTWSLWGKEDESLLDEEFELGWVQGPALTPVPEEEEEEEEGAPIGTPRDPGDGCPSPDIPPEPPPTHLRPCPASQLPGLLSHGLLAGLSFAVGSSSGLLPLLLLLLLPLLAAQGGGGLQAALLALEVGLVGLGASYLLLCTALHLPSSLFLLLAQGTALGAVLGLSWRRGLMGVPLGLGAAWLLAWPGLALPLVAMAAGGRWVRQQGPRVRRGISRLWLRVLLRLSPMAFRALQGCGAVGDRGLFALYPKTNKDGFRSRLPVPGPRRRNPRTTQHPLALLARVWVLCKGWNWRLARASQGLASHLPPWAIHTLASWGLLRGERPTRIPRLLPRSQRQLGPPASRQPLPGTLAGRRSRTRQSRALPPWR
Sequence of HGK (h) (MAP4K4) (O95819 whole entry): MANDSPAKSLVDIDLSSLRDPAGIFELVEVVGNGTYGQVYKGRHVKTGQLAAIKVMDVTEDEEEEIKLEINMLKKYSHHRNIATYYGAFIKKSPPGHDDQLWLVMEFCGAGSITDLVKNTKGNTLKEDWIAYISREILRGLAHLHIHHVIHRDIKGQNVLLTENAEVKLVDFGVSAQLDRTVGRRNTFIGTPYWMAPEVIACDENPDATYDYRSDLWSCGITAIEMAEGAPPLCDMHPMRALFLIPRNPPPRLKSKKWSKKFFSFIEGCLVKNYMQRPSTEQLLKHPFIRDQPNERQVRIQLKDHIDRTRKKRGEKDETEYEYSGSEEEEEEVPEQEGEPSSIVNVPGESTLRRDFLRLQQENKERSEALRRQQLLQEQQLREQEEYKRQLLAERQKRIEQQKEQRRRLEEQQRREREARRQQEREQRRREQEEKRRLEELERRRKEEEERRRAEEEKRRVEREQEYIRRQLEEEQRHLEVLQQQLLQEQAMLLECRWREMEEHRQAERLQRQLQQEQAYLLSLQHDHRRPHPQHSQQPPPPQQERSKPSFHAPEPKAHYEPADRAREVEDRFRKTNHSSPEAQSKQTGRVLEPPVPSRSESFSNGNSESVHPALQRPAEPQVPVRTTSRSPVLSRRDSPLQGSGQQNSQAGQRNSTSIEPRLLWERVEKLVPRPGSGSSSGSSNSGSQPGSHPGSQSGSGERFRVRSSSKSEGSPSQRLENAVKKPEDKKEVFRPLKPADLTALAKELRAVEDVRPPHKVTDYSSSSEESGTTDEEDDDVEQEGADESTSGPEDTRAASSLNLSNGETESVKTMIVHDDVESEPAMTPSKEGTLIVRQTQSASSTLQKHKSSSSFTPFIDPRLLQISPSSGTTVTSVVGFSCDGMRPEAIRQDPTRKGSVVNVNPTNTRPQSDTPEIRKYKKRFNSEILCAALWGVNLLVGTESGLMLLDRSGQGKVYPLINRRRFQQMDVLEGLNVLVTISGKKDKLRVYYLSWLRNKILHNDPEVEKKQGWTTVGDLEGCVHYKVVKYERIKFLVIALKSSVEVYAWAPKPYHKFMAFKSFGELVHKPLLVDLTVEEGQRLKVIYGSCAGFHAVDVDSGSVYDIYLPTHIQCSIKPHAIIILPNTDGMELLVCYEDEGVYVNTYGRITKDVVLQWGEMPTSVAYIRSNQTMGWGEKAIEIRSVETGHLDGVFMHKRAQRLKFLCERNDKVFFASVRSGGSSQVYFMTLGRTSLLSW
Sequence of CDK5/p35 (h) (Q00535 whole entry): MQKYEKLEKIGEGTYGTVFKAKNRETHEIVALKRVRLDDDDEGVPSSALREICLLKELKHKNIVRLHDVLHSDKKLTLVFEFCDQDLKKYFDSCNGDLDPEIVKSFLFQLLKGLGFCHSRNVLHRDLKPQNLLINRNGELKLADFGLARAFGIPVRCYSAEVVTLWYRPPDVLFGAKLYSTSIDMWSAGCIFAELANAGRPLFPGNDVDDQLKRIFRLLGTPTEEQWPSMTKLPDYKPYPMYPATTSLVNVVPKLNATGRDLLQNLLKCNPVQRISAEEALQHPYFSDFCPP
Sequence of CDK5/p35 (h) (Q15078 whole entry partner): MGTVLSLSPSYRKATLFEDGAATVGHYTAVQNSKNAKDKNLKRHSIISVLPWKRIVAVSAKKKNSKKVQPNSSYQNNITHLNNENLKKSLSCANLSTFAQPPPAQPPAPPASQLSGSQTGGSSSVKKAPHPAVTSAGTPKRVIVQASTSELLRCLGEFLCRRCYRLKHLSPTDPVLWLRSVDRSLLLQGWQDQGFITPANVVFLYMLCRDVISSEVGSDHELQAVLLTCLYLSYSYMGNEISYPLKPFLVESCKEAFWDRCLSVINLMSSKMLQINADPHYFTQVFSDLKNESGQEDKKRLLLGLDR
Sequence of ERK2 (h) (P42mapk) (P28482 whole entry): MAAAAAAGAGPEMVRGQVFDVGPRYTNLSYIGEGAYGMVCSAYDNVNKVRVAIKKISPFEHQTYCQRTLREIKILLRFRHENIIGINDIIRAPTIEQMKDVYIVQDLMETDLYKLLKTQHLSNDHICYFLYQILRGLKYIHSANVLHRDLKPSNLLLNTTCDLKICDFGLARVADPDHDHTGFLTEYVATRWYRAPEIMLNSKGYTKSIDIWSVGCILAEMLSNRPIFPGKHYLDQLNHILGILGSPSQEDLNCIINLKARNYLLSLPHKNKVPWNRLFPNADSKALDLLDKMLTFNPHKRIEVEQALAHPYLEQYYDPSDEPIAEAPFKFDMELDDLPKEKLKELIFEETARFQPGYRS
Sequence of Src kinase (h) (P12931 whole entry, looked up): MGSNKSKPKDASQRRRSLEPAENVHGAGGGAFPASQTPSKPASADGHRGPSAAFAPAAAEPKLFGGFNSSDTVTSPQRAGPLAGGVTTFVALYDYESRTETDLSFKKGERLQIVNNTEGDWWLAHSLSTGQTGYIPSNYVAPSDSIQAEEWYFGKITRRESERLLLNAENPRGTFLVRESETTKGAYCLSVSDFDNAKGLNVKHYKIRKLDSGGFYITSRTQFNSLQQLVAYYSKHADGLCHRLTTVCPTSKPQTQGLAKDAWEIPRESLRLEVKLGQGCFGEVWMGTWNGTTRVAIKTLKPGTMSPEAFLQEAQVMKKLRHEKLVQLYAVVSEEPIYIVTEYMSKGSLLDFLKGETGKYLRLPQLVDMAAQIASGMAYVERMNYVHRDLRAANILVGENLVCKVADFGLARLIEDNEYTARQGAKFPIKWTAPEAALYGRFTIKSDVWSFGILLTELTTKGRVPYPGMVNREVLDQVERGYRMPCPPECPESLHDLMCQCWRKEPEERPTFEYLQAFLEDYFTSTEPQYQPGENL
Sequence of MEK1/MAP2K1 (h) (Q02750 whole entry): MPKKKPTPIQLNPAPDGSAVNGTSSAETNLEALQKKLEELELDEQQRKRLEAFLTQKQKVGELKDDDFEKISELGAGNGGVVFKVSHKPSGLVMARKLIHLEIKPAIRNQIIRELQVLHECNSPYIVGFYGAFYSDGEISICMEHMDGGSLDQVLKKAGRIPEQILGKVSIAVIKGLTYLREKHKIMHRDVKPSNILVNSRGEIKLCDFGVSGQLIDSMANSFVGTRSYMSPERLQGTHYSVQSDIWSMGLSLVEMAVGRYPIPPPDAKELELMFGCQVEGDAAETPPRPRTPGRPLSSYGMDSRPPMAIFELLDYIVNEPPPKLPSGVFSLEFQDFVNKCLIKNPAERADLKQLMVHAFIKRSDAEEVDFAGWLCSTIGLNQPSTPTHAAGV
Sequence of human GSK-3β (P49841 whole entry): as the sequence (P49841 whole entry) above

inhibition at 10 µM [1] | inhibition at 10 µM [2] | inhibition at 10 µM [3] | inhibition at 10 µM [4] | inhibition at 10 µM [5] | inhibition at 10 µM [6] | inhibition at 10 µM [7] | inhibition at 10 µM [8] | inhibition at 10 µM [9] | inhibition at 10 µM [10] | inhibition at 10 µM [11] | inhibition at 10 µM [12] | inhibition at 10 µM [13] | IC50 [14] | inhibition at 10 µM [15] | inhibition at 10 µM [16] | inhibition at 10 µM [17] | SMILES | selectivity for GSK-3β compared to the other kinases of the panel [5]
49% | 80% | 61% | 77% | 100% | 100% | 67% | 0% | 0% | 77% | 71% | 9% | 75% | 30 nM | 17% | 61% | 3% | O=C(O)CN1CCC(CNC(=O)c2n[nH]c3ccc(-c4cccc(F)c4F)cc23)CC1 [Compound 29, {4-[({[5-(2,3-difluorophenyl)-1H-indazol-3-yl]carbonyl}amino)methyl]piperidin-1-yl}acetic acid] | good affinity to GSK-3β when compared to most of other kinases of the same family
27% | 10% | 9% | 16% | 89% | 77% | 9% | 0% | 9% | 35% | 10% | 0% | 9% | 960 nM | 1% | 1% | 0% | CCc1ccc2[nH]nc(C(=O)NCC3CCN(CC(=O)O)CC3)c2c1 [Compound 31, [4-({[(5-ethyl-1H-indazol-3-yl)carbonyl]amino}methyl)piperidin-1-yl]acetic acid] | good selectivity profile
